Measurements reported in the supplement of paper PMC11208160.

Assay: recombinant barcode read abundance after kanamycin selection (control-corrected) (log10(CPM+1)); higher = more efficient recombination; sequences stand for … in AGTGCAGAGAAAATCGGCCAGTTTTCTCTGCCTGCAGTCCGCATGCCGT…AGATTTATGCAGCGGACTGCCTTTCTCCCAAAGTGATAAACCGGACAGTATCATGGACCGGTTTTCCCGGTAATCCGTATTTGCAAGGTTGGTTTCACT; site = the 11-nt target
In short: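 Pooled E. coli screen pairing targets with IS621 bridge RNA target-binding loops. Each oligo (promoter, target, barcode, J23119-driven first 104 bridge RNA bases) was Gibson-cloned into a vector with the remaining 73 bp and T7-inducible recombinase, then co-electroporated with a donor plasmid. Two replicates each were plated on chloramphenicol/ampicillin LB agar (control) or chloramphenicol/ampicillin/kanamycin with 0.1 mM IPTG. Recombination efficiency is recombinant-junction barcode counts as CPM, averaged, control-corrected, reported as log10(CPM+1).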
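Note: IS621 recombinase and bridge RNA in Escherichia coli cells.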

| Sequence | recombinant barcode read abundance (log10) |
| --- | --- |
| CTAAGCTCTTGGGTTCTAACCTGTTGCTT (site CTAAGCTCTCA) | 0.133 |
| CTAAGCTCTTGGGTTCTAACCTGTTGCTT (site CTAAGCTCTGA) | 0.0802 |
| CTAAGCTCTTGGGTTCTAACCTGTTGCTT (site CTAAGCTCTTA) | 0.107 |
| CTAAGGCCTTGGGTTCTAACCTGTTGCCT (site CTAAAGCCTAG) | 0.377 |
| CTAAGGCCTTGGGTTCTAACCTGTTGCCT (site CTAAGGCCTAG) | 0.162 |
| CTAAGGTCTTGGGTTCTAACCTGTTGCTA (site CTAAGGTCTTA) | 1.64 |
| CTAAGGTCTTGGGTTCTAACCTGTTGCTA (site TCTTTAGCTCT) | 0.123 |
| CTAAGTGCTTGGGTTCTAACCTGTTGCCA (site CTAAGAGCTTG) | 0.0354 |
| CTAAGTGCTTGGGTTCTAACCTGTTGCCA (site CTAAGCGCTTG) | 0.0378 |
| CTAAGTGCTTGGGTTCTAACCTGTTGCCA (site CTAAGGGCTTG) | 0.0841 |
| CTAAGTGCTTGGGTTCTAACCTGTTGCCA (site CTAAGTGCTTG) | 0.35 |
| CTAATATCTTGGGTTCTAACCTGTTGCCA (site CTAATATCTTG) | 0.0293 |
| CTAATATCTTGGGTTCTAACCTGTTGCCA (site CTCATATCTTG) | 0.128 |
| CTAATGTCTTGGGTTCTAACCTGTTGCCA (site CTAATGTCTAG) | 0.622 |
| CTAATGTCTTGGGTTCTAACCTGTTGCCA (site CTAATGTCTTG) | 0.26 |
| CTAATTACTTGGGTTCTAACCTGTTGCAA (site CTAAGTACTCT) | 0.0716 |
| CTAATTACTTGGGTTCTAACCTGTTGCAA (site CTAATTACTTT) | 0.094 |
| CTACAAGCTTGGGTTCTAACCTGTTGCCT (site CTACAAGCTAG) | 1.34 |
| CTACAAGCTTGGGTTCTAACCTGTTGCCT (site CTCCAAGCTAG) | 0.279 |
| CTACAAGCTTGGGTTCTAACCTGTTGCCT (site CTGCAAGCTAG) | 0.155 |
| CTACAAGCTTGGGTTCTAACCTGTTGCCT (site CTTCAAGCTAG) | 0.177 |
| CTACAATCTTGGGTTCTAACCTGTTGCCT (site ATACAATCTAG) | 0.0309 |

| Sequence | recombinant barcode read abundance (log10) |
| --- | --- |
| CTACAATCTTGGGTTCTAACCTGTTGCCT (site CTACAATCTAG) | 0.979 |
| CTACAATCTTGGGTTCTAACCTGTTGCCT (site GTACAATCTAG) | 0.0211 |
| CTACAATCTTGGGTTCTAACCTGTTGCCT (site TTACAATCTAG) | 0.0283 |
| CTACACACTTGGGTTCTAACCTGTTGCTC (site CTACACACTGA) | 1.64 |
| CTACACACTTGGGTTCTAACCTGTTGCTC (site CTACACACTTA) | 0.0402 |
| CTACAGACTTGGGTTCTAACCTGTTGCGA (site CTACAGACTAC) | 0.0546 |
| CTACAGACTTGGGTTCTAACCTGTTGCGA (site CTACAGACTCC) | 1.04 |
| CTACAGACTTGGGTTCTAACCTGTTGCGA (site CTACAGACTGC) | 0.0716 |
| CTACAGACTTGGGTTCTAACCTGTTGCGA (site CTACAGACTTC) | 2.73 |
| CTACAGACTTGGGTTCTAACCTGTTGCGC (site CTACAGACTAC) | 0.253 |
| CTACAGACTTGGGTTCTAACCTGTTGCGC (site CTACAGACTCC) | 0.221 |
| CTACAGACTTGGGTTCTAACCTGTTGCGC (site CTACAGACTGC) | 1.21 |
| CTACAGACTTGGGTTCTAACCTGTTGCGC (site CTACAGACTTC) | 0.503 |
| CTACAGACTTGGGTTCTAACCTGTTGCGG (site CTACAGACTAC) | 0.088 |
| CTACAGACTTGGGTTCTAACCTGTTGCGG (site CTACAGACTCC) | 2.61 |
| CTACAGACTTGGGTTCTAACCTGTTGCGG (site CTACAGACTGC) | 0.141 |
| CTACAGACTTGGGTTCTAACCTGTTGCGG (site CTACAGACTTC) | 1.31 |
| CTACAGACTTGGGTTCTAACCTGTTGCGT (site CTACAGACTAC) | 1.81 |
| CTACAGACTTGGGTTCTAACCTGTTGCGT (site CTACAGACTCC) | 0.229 |
| CTACAGACTTGGGTTCTAACCTGTTGCGT (site CTACAGACTGC) | 0.155 |
| CTACAGACTTGGGTTCTAACCTGTTGCGT (site CTACAGACTTC) | 0.238 |
| CTACATTCTTGGGTTCTAACCTGTTGCGT (site CTAAATACTAC) | 0.0752 |

| Sequence | recombinant barcode read abundance (log10) |
| --- | --- |
| CTACATTCTTGGGTTCTAACCTGTTGCGT (site CTACATTCTAC) | 1.52 |
| CTACGATCTTGGGTTCTAACCTGTTGCAC (site CTACGATCTGT) | 0.737 |
| CTACGATCTTGGGTTCTAACCTGTTGCAC (site CTACGCTCTGT) | 0.162 |
| CTACGATCTTGGGTTCTAACCTGTTGCAC (site CTACGGTCTGT) | 0.375 |
| CTACGATCTTGGGTTCTAACCTGTTGCAC (site CTACGTTCTGT) | 0.365 |
| CTACGCTCTTGGGTTCTAACCTGTTGCGA (site CTACGCTCTTC) | 1.52 |
| CTACGCTCTTGGGTTCTAACCTGTTGCGA (site CTAGGCTCTCC) | 0.452 |
| CTACGGTCTTGGGTTCTAACCTGTTGCAC (site CTACGATCTGT) | 0.256 |
| CTACGGTCTTGGGTTCTAACCTGTTGCAC (site CTACGCTCTGT) | 0.238 |
| CTACGGTCTTGGGTTCTAACCTGTTGCAC (site CTACGGTCTGT) | 0.404 |
| CTACGGTCTTGGGTTCTAACCTGTTGCAC (site CTACGTTCTGT) | 0.0783 |
| CTACGTCCTTGGGTTCTAACCTGTTGCTC (site CTACGTCCTAA) | 0.191 |
| CTACGTCCTTGGGTTCTAACCTGTTGCTC (site CTACGTCCTCA) | 0.942 |
| CTACGTCCTTGGGTTCTAACCTGTTGCTC (site CTACGTCCTGA) | 0.91 |
| CTACGTCCTTGGGTTCTAACCTGTTGCTC (site CTACGTCCTTA) | 0.0289 |
| CTACGTTCTTGGGTTCTAACCTGTTGCAC (site CTACGATCTGT) | 0.0857 |
| CTACGTTCTTGGGTTCTAACCTGTTGCAC (site CTACGCTCTGT) | 0 |
| CTACGTTCTTGGGTTCTAACCTGTTGCAC (site CTACGGTCTGT) | 0.0816 |
| CTACGTTCTTGGGTTCTAACCTGTTGCAC (site CTACGTTCTGT) | 1.1 |
| CTACTAGCTTGGGTTCTAACCTGTTGCAG (site CTACTAGCTAT) | 0.173 |
| CTACTAGCTTGGGTTCTAACCTGTTGCAG (site CTACTAGCTCT) | 2.5 |
| CTACTAGCTTGGGTTCTAACCTGTTGCAG (site CTACTAGCTGT) | 0.0122 |
